Results as given in patent US20250034182A1, “PHOSPHOLIPID COMPOUNDS AND METHODS OF MAKING AND USING THE SAME” (priority 2021, published 2025).

Columns and labels:
Format in all cases: cell-based
[1] = RSV HEP2-CC50-384-V2 (per Ex. V); settings: human
[2] = system: Respiratory syncytial virus recombinant with luciferase (RSV-Luc5) in HEp-2 cells; experiment: HEp-2 RSV-Luc5 384-well assay (EC50 RSVFLUC Hep2-384 v2, Example V); settings: human respiratory syncytial virus, HEp-2, 72 h, read-out: RSV Hep-2 FLuc EC50 (v2) (nM) (per Ex. V)
Excerpt: (§1) HEp-2 cell line was purchased from ATCC (Manassas, VA Cat #CCL-23) and maintained in Dulbecco's […] (DMEM) (Corning, New York, NY, Cat #15-018CM) supplemented with 10% fetal bovine serum (FBS) (Hyclone, Logan, UT, Cat #SH30071-03) and 1× Penicillin-Streptonycin-L-Glutamine (Corning, New York, NY, Cat #30-009-CI). Cells were passaged 2 times per week to maintain sub-confluent densities and were used for experiments at passage 5-20. Respiratory syncytial virus recombinant with luciferase (RSV-Luc5) (≥1×107 TCID50/ml) was purchased from Microbiologics (Saint Cloud, MN). Viral replication was determined in HEp-2 cells in the following manner.
Compounds are prepared in 100% DMSO in 384-well polypropylene plates (Greiner, Monroe, NC, Cat #784201) with 8 compounds per plate in grouped replicates of 4 at 10 serially diluted concentrations (1:3). The serially diluted compounds were transferred to low dead volume Echo plates (Labcyte, Sunnyvale, CA, Cat #LP-0200).
The test compounds were spotted to 384-well assay plates (Greiner, Monroe, NC, Cat #781091) at 200 nL per well. HEp-2 cells were harvested and suspended in DMEM (supplemented with 10% FBS and 1× Penicillin-Streptomycin-L-Glutamine) and seeded to the pre-spotted assay plates at 4,000 cells per well in 30 μL. RSV-Luc5 viruses were diluted in DMEM (supplemented with 10% FBS and 1× Penicillin-Streptomycin-L-Glucamine) at 200,000 Infectious Units (IU) per mL and 10 μL per well was added to the assay plates containing cells and compounds, for an MOI=0.5. The assay plates were incubated for 3 days at 37° C. and 5% CO2. At the end of incubation, One-Glo reagent (Promega, Madison, WI, Cat #E6120) was prepared. The assay plates and One-Glo reagent were equilibrated to room temperature for at least 15 minutes. 40 μL per well of One-Glo reagent was added and the plates were incubated at room temp for 15 minutes before reading the luminescence signal on an EnVision multimode plate reader (Perkin Elmer, Waltham, MA). Remdesivir was used as positive control and DMSO was used as negative control. Values were normalized to the positive and negative controls (as 0% and 100% replication, respectively) and data was fitted using non-linear regression analysis by Gilead's dose response tool. The EC50 value for each compound was then determined as the concentration reducing the viral replication by 50%.

[3] = system: Respiratory syncytial virus recombinant with luciferase (RSV-Luc5) in HEp-2 cells; experiment: HEp-2 RSV-Luc5 384-well assay (EC50 RSVFLUC Hep2-384, Example R); settings: human respiratory syncytial virus, HEp-2, 72 h, read-out: RSV Hep-2 FLuc EC50 (nM) (per Ex. R)
Excerpt: as §1, with “Penicillin-Streptornycin-L-Glutamine” for “Penicillin-Streptonycin-L-Glutamine”, “(RSV-Luc5) direct pelleted virus” for “(RSV-Luc5)”
Compounds are prepared in 384-well polypropylene plates (Greiner, Monroe, NC, Cat #784201) with 8 compounds per plate in grouped replicates of 4 at 10 serially diluted concentrations (1:3).
HEp-2 cells were suspended in DMEM (supplemented with 10% FBS and 1×Penicillin-Streptonycin-L-Glutimine) and 60 μL of 4,000 cells per well were seeded into 384-well plates (Greiner, Monroe, NC, Cat #781080) using Biotek MultiFlo dispenser. After overnight incubation at 37° C. and 5% CO2, 0.4 uL of three-fold serial dilutions of compound was added to each well using a Biomek FX pipette station. RSV-Luc5 viruses were diluted in DMEM (supplemented with 10% FBS and 1× Penicillin-Streptonycin-L-Glutainie) at an MOI=0.5. Virus suspension was added to each 384-well compound plate at 20 uL per well using a Biotek MultiFlo dispenser. The assay plates were incubated for 3 days at 37° C. and 5% CO2. At the end of incubation, One-Glo reagent (Promega, Madison, WI, Cat #E6120) was prepared. The assay plate and the reagent were equilibrated to room temperature for 30 minutes. 50 uL per well of medium was removed from assay plate and 40 uL per well of One-Glo reagent was added to each plate by Biomek FX. The plates were sat at room temp for 15 minutes. Viral replication was then assessed by measuring luminescence signal using and Envision plate reader. Remdesivir was used as positive control and DMSO was used as negative control. Values were normalized to the positive and negative controls (as 0% and 100% replication, respectively) and data was fitted using non-linear regression analysis by Gilead's dose response tool. The EC50 value for each compound was then determined as the concentration reducing the viral replication by 50%.

[4] = system: Recombinant Respiratory Syncytial virus strain A2 containing the firefly luciferase reporter (RSV-Fluc) in NHBE cells; experiment: RSV NHBE FLuc EC50 (Example I); settings: human respiratory syncytial virus, 72 h, read-out: RSV NHBE FLuc EC50 (nM) (per Ex. I)
Excerpt: Normal human bronchial epithelial (NHBE) cells are purchased from Lonza (Walkersville, MD Cat #CC-2540) and maintained in Bronchial Epithelial Cell Growth Medium (BEGM) (Lonza, Walkersville, MD, Cat #CC-3170) with all provided supplements in the BulletKit. Cells are passaged 2-3 times per week to maintain sub-confluent densities and are used for experiments at passages 2-4.
Recombinant Respiratory Syncytial virus strain A2 containing the firefly luciferase reporter between the P and M genes (RSV-Fluc, 6.3×10^6 TCID50/mL) is purchased from Viratree (Durham, NC, Cat #R^145).
NHBE cells (5×10^3/well) are seeded in 100 μL white wall/clear bottom 96-well plates (Corning) with culture medium and are incubated for 24 hours at 37° C. with 5% CO2. On the following day, three-fold serial dilutions of compounds prepared in DMSO are added to the wells using the HP D300e digital dispenser with normalization to the highest concentration of DMSO in all wells. The cells are then infected with RSV-Fluc diluted with BEGM media at an MOI of 0.1 for a final volume of 200 μL media/well. Uninfected and untreated wells are included as controls to determine compound efficacy against RSV-Fluc. Following incubation with compound and virus for three days at 37° C. with 5% CO2, 100 μL of culture supernatant is removed from each well and replaced with 100 μL of ONE-Glo luciferase reagent (Promega, Madison, WI, Cat #E6110). The plates are gently mixed by rocking for 10 minutes at 21° C. and luminescence signal is measured using an Envision plate reader (PerkinElmer). Values are normalized to the uninfected and infected DMSO controls (0% and 100% infection, respectively). Non-linear regression analysis is applied to determine the compound concentration at which 50% luminescence signal is reduced (EC50) using the XLfit4 add-in for MICROSOFT®EXCEL®. All experiments are performed in duplicate with two technical repeats each.

Molecule CCCCCCCCCCCCCCOC[C@H](COP(=O)(O)OC[C@@]1(C#N)O[C@@H](c2ccc3c(N)ncnn23)[C@H](O)[C@@H]1O)Oc1ccc(C#N)nc1 [Compound 77, ((2R,3S,4R)-5-(4-aminopyrrolo[2,1-f][1,2,4]triazin-7-yl)-2-cyano-3,4-dihydroxytetrahydrofuran-2-yl)methyl ((R)-2-((6-cyanopyridin-3-yl)oxy)-3-(tetradecyloxy)propyl) hydrogen phosphate] has a CC50 at 3 days [1] of over 50 µM, an EC50 [2] of 90 nM and an EC50 [3] of 222 nM. The EC50 [4] was 12 nM.

With CCCCCCCCCCCCCCCCCCOC[C@@H](COP(=O)(O)OC[C@@]1(C#N)O[C@@H](c2ccc3c(N)ncnn23)[C@H](O)[C@@H]1O)OCc1ccc(C#N)cc1OC [Compound 67, ((2R,3S,4R)-5-(4-aminopyrrolo[2,1-f][1,2,4]triazin-7-yl)-2-cyano-3,4-dihydroxytetrahydrofuran-2-yl)methyl ((S)-2-((4-cyano-2-methoxybenzyl)oxy)-3-(octadecyloxy)propyl) hydrogen phosphate] the EC50 [3] was 229 nM and the EC50 [4] was 28 nM.

With CCCCCCCCCCCCCCCCCCOC[C@H](COP(=O)(O)OC[C@@]1(C#N)O[C@@H](c2ccc3c(N)ncnn23)[C@H](O)[C@@H]1O)OCc1ccc(OC)c(C#N)c1 [Compound 9, ((2R,3S,4R,5S)-5-(4-aminopyrrolo[2,1-f][1,2,4]triazin-7-yl)-2-cyano-3,4-dihydroxytetrahydrofuran-2-yl)methyl ((R)-2-((3-cyano-4-methoxybenzyl)oxy)-3-(octadecyloxy)propyl) hydrogen phosphate] the CC50 at 3 days [1] was over 48.5 µM, the EC50 [2] was 145 nM and the EC50 [3] was 53 nM.

For CCCCCCCCCCCCCCCCCCOC[C@H](COP(=O)(O)OC[C@@]1(C#N)O[C@@H](c2ccc3c(N)ncnn23)[C@H](O)[C@@H]1O)Oc1cccc(C#N)c1 [Compound 50, ((2R,3S,4R,5S)-5-(4-aminopyrrolo[2,1-f][1,2,4]triazin-7-yl)-2-cyano-3,4-dihydroxytetrahydrofuran-2-yl)methyl ((R)-2-(3-cyanophenoxy)-3-(octadecyloxy)propyl) hydrogen phosphate], the CC50 at 3 days [1] was over 50 µM, the EC50 [2] was 91 nM and the EC50 [3] was 12 nM. It also gave an EC50 [4] of 18 nM.

In the case of CCCCCCCCCCCCCCCCCCOC[C@H](COP(=O)(O)OC[C@@]1(C#N)O[C@@H](c2ccc3c(N)ncnn23)[C@H](O)[C@@H]1O)OCc1cncc(C#N)c1 [Compound 66, ((2R,3S,4R)-5-(4-aminopyrrolo[2,1-f][1,2,4]triazin-7-yl)-2-cyano-3,4-dihydroxytetrahydrofuran-2-yl)methyl ((R)-2-((5-cyanopyridin-3-yl)methoxy)-3-(octadecyloxy)propyl) hydrogen phosphate], the CC50 at 3 days [1] is reported as 49.1 µM, the EC50 [2] is reported as 56 nM and the EC50 [3] is reported as 21 nM. The EC50 [4] was 50 nM.

CCCCCCCCCCCCCCCCCCC[C@H](COP(=O)(O)OC[C@@]1(C#N)O[C@@H](c2ccc3c(N)ncnn23)[C@H](O)[C@@H]1O)OCc1ccc(C#N)c(OC)c1 [Compound 27, ((2R,3S,4R)-5-(4-aminopyrrolo[2,1-f][1,2,4]triazin-7-yl)-2-cyano-3,4-dihydroxytetrahydrofuran-2-yl)methyl ((R)-2-((4-cyano-3-methoxybenzyl)oxy)henicosyl) hydrogen phosphate] showed an EC50 [3] of 232 nM and an EC50 [4] of 42 nM.
